Reference: ChEMBL document CHEMBL5550186, “Exploring the Potential of Cyclic Peptidyl Antitumor Agents Derived from Natural Macrocyclic Peptide Phakellistatin 13” (J Med Chem, 2024)
The source made the active and inactive calls. The calls are words filed in the database; no cut-off is given here.

Columns and labels:
HepG2 [1] = experiment: Antiproliferative activity against human HepG2 cells incubated for 48 hrs by MTT assay; format: functional, cell-based; conditions: HepG2, 48 h
HepG2 [2] = experiment: Upregulation of cytochrome c level in human HepG2 cells at 5 to 20 uM measured after 48 hrs by Western blot analysis; format: functional, cell-based; conditions: dose 5-20 µM
[3] = Upregulation of CDKN1A expression level in human HepG2 cells assessed as fold change by KEGG enrichment analysis; format: functional
[4] = […] of CCND1 expression level in human HepG2 cells assessed as fold change by KEGG enrichment analysis; format: functional
Cell membrane [5] = experiment: Induction of mitochondrial membrane potential loss in human HepG2 cells assessed as decrease in fluorescence at 10 uM measured after 48 hrs by Rhodamine 123 staining based flow cytometry (reference value: 66.8%); format: cell membranes; set-up: scale not given: the % may be the effect or the level left
[6] = Upregulation of IL1A expression level in human HepG2 cells assessed as fold change by KEGG enrichment analysis; format: functional
HepG2 [7] = experiment: Induction of cell cycle arrest in human HepG2 cells assessed as accumulation of cells at S phase at 10 uM incubated for 24 hrs by PI staining based flow cytometry analysis (reference value: 39.6%); format: functional
HepG2 [8] = experiment: Induction of cell cycle arrest in human HepG2 cells assessed as accumulation of cells at S phase at 20 uM incubated for 48 hrs by PI staining based flow cytometry analysis (reference value: 39.6%); format: functional
[9] = Mutagenicity in Salmonella typhimurium by Ames test; format: toxicity; conditions: salmonella enterica subsp. enterica serovar typhimurium
HepG2 [10] = experiment: Induction of cell cycle arrest in human HepG2 cells assessed as accumulation of cells at 2N phase at 20 uM incubated for 48 hrs by PI staining based flow cytometry analysis (reference value: 26.0%); format: functional
HepG2 [11] = experiment: Induction of cell cycle arrest in human HepG2 cells assessed as accumulation of cells at G2/M phase at 5 uM incubated for 48 hrs by PI staining based flow cytometry analysis (reference value: 6.38%); format: functional
HepG2 [12] = experiment: Induction of cell cycle arrest in human HepG2 cells assessed as assessed as accumulation of cells at S phase at 10 uM incubated for 12 hrs by PI staining based flow cytometry analysis (reference value: 39.6%); format: functional
HepG2 [13] = experiment: Induction of cell cycle arrest in human HepG2 cells assessed as assessed as accumulation of cells at 2N phase at 10 uM incubated for 12 hrs by PI staining based flow cytometry analysis (reference value: 26.0%); format: functional
Cell membrane [14] = experiment: Induction of mitochondrial membrane potential loss in human HepG2 cells assessed as decrease in fluorescence at 5 uM measured after 48 hrs by Rhodamine 123 staining based flow cytometry (reference value: 66.8%); format: cell membranes; set-up: scale not given: the % may be the effect or the level left
[15] = Upregulation of SESN3 expression level in human HepG2 cells assessed as fold change by KEGG enrichment analysis; format: functional
[16] = Toxicity in Balb/c mouse assessed as effect on liver at 6 mg/kg, iv measured after 14 days by H and E staining based analysis; format: organism-based; conditions: in vivo, 336 h, time 14 day
Cell membrane [17] = experiment: Induction of mitochondrial membrane potential loss in human HepG2 cells assessed as decrease in fluorescence at 10 uM measured after 24 hrs by Rhodamine 123 staining based flow cytometry (reference value: 66.8%); format: cell membranes; set-up: scale not given: the % may be the effect or the level left
HepG2 [18] = experiment: Induction of apoptosis in human HepG2 cells assessed as late apoptotic cells at 5 uM incubated for 48 hrs by annexin V-FITC/PI staining based flow cytometry analysis (reference value: 0.16%); format: functional
[19] = Toxicity in Balb/c mouse assessed as effect on body weight at 6 mg/kg, iv measured every two days for 14 days; format: organism-based; conditions: in vivo, 336 h, time 14 day
HepG2 [20] = experiment: Induction of cell cycle arrest in human HepG2 cells assessed as accumulation of cells at G2/M phase at 10 uM incubated for 24 hrs by PI staining based flow cytometry analysis (reference value: 6.38%); format: functional
[21] = Upregulation of NGFR expression level in human HepG2 cells assessed as fold change by KEGG enrichment analysis; format: functional
[22] = Upregulation of PGF expression level in human HepG2 cells assessed as fold change by KEGG enrichment analysis; format: functional
Cell membrane [23] = experiment: Induction of mitochondrial membrane potential loss in human HepG2 cells assessed as decrease in fluorescence measured after 48 hrs by Rhodamine 123 staining based flow cytometry; format: cell membranes; conditions: dose 5-20 µM
[24] = Upregulation of GADD45B expression level in human HepG2 cells assessed as fold change by KEGG enrichment analysis; format: functional
[25] = Upregulation of DUSP6 expression level in human HepG2 cells assessed as fold change by KEGG enrichment analysis; format: functional
HepG2 [26] = experiment: Induction of cell cycle arrest in human HepG2 cells assessed as accumulation of cells at >G2/M phase at 20 uM incubated for 48 hrs by PI staining based flow cytometry analysis (reference value: 28.0%); format: functional
HepG2 [27] = experiment: Induction of apoptosis in human HepG2 cells assessed as early apoptotic cells at 20 uM incubated for 48 hrs by annexin V-FITC/PI staining based flow cytometry analysis (reference value: 0.50%); format: functional
[28] = Upregulation of SYVN1 expression level in human HepG2 cells assessed as fold change by KEGG enrichment analysis; format: functional
[29] = Upregulation of DET1 expression level in human HepG2 cells assessed as fold change by KEGG enrichment analysis; format: functional
BEL-7404 tumor cell line = experiment: Antiproliferative activity against human BEL-7404 tumor cell line incubated for 48 hrs by MTT assay; format: functional, cell-based; conditions: BEL-7404, 48 h
HepG2 [30] = experiment: Induction of apoptosis in human HepG2 cells assessed as increase in caspase 3 activity at 5 to 10 uM measured after 24 hrs by green-nuc staining based fluorescence microscopic analysis; format: functional, cell-based; conditions: dose 5-10 µM
HepG2 [31] = experiment: Induction of morphological changes in human HepG2 cells assessed as appearance of luminous morphology at 40 uM measured after 12 to 24 hrs by fluorescence inverted microscopic analysis; format: functional, cell-based; conditions: time 12-24 hrs
[32] = Downregulation of RSPO3 expression level in human HepG2 cells assessed as fold change by KEGG enrichment analysis; format: functional
HepG2 [33] = experiment: Induction of apoptosis in human HepG2 cells assessed as necrotic cells at 20 uM incubated for 48 hrs by annexin V-FITC/PI staining based flow cytometry analysis (reference value: 0%); format: functional
HepG2 [34] = experiment: Induction of cell cycle arrest in human HepG2 cells assessed as accumulation of cells at S phase at 5 uM incubated for 48 hrs by PI staining based flow cytometry analysis (reference value: 39.6%); format: functional
[35] = Toxicity in Balb/c mouse assessed as effect on heart at 6 mg/kg, iv measured after 14 days by H and E staining based analysis; format: organism-based; conditions: in vivo, 336 h, time 14 day
Cell membrane [36] = experiment: Induction of mitochondrial membrane potential loss in human HepG2 cells assessed as decrease in fluorescence at 10 uM by Rhodamine 123 staining based flow cytometry; format: cell membranes; conditions: time 12-48 hrs, TDE = time-dependent effect
[37] = Upregulation of FGF21 expression level in human HepG2 cells assessed as fold change by KEGG enrichment analysis; format: functional
HepG2 [38] = experiment: Induction of apoptosis in human HepG2 cells assessed as late apoptotic cells at 20 uM incubated for 48 hrs by annexin V-FITC/PI staining based flow cytometry analysis (reference value: 0.16%); format: functional

With `CC(C)C[C@H]1NC(=O)[C@H]([C@@H](C)OCc2ccccc2)NC(=O)[C@H]2CCCN2C(=O)CN2C(=O)c3ccccc3[C@@]2(O)CN(Cc2ccccc2)C(=O)[C@H](Cc2ccccc2)NC(=O)[C@H]2CCCN2C(=O)[C@H](Cc2c[nH]c3ccccc23)NC1=O` the IC50 (HepG2 [1]) was 11.6 µM, the Activity (HepG2 [2]) was “Active” and the “fold change (FC)” value [3] was 1.175. For the same compound, the “fold change (FC)” value [4] was -1.18, the Activity (Cell membrane [5]) was 28.8% and the “fold change (FC)” value [6] was 2.186. For the same compound, the Activity (HepG2 [7]) was 14.3%, the Activity (HepG2 [8]) was 11.7% and the Activity [9] was “Non-Toxic”. For the same compound, the Activity (HepG2 [10]) was 21.9%, the Activity (HepG2 [11]) was 18.9% and the Activity (HepG2 [12]) was 18.9%. The Activity (HepG2 [13]) was 27.8%, the Activity (Cell membrane [14]) was 41.6% and the “fold change (FC)” value [15] was 1.529. The Activity [16] was “Non-Toxic”, the Activity (Cell membrane [17]) was 45.4% and the Activity (HepG2 [18]) was 2.4%. The Activity [19] was “Non-Toxic”, the Activity (HepG2 [20]) was 13% and the “fold change (FC)” value [21] was 1.584. For the same compound, the “fold change (FC)” value [22] was 2.135, the Activity (Cell membrane [23]) was “Dose-Dependent Effect” and the “fold change (FC)” value [24] was 1.146. The “fold change (FC)” value [25] was 1.112, the Activity (HepG2 [26]) was 1.12% and the Activity (HepG2 [27]) was 41.1%. The “fold change (FC)” value [28] was 1.048, the “fold change (FC)” value [29] was 1.448 and the IC50 (BEL-7404 tumor cell line) was 17.1 µM. For the same compound, the Activity (HepG2 [30]) was “Active”, the Activity (HepG2 [31]) was “Active” and the “fold change (FC)” value [32] was -1.578. The Activity (HepG2 [33]) was 0.02%, the Activity (HepG2 [34]) was 12.3% and the Activity [35] was “Non-Toxic”. For the same compound, the Activity (Cell membrane [36]) was “Tde”, the “fold change (FC)” value [37] was 9.022 and the Activity (HepG2 [38]) was 6.88%.
